# Measured values: patent publication US20050124562A1, “Bis-quinazoline compounds for the treatment of bacterial infections” (priority 2003, published 2005)
# How the values were obtained:
# Type in all cases: cell-based
# M. catarrhalis = assay: Broth microdilution MIC (NCCLS), M. catarrhalis; details: Moraxella catarrhalis; some strains of M. catarrhalis; read-out: MIC range
# Protocol: (§1) Representative bis-quinazolines were tested for antibacterial activity using the […] microdilution method to determine their minimum inhibitory concentrations (MICs). All compounds were tested using standard methods in accordance with NCCLS guidelines (National Committee for Clinical Laboratory Standards. 2003. Methods for dilution antimicrobial susceptibility testing for bacteria that grow aerobically. Approved Standard M-7 A-6, NCCLS, Wayne, Pa.). The bacterial strains used in the susceptibility tests were obtained from the American Type Culture Collection (ATCC) and included resistant phenotypes such as oxacillin-resistant S. aureus (ORSA) and vancomycin-resistant enterococci (VRE). The minimum bactericidal concentrations (MBCs) were determined for selected organisms. The effect of protein binding on the antibacterial activity of representative bis-quinazolines were determined by conducting MIC tests in the presence of human serum.
# [1] = system: efflux mutants of P. aeruginosa; assay: Broth microdilution MIC (NCCLS), P. aeruginosa efflux mutants; details: Pseudomonas aeruginosa, read-out: MICs
# Protocol: as §1
# [2] = system: S. aureus, E. faecalis, S. pyogenes and S. pneumoniae; assay: Broth microdilution MIC (NCCLS), gram-positive strains; details: range against some strains of S. aureus, E. faecalis, S. pyogenes and S. pneumoniae; read-out: MIC
# In short: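 MICs by broth microdilution per NCCLS M-7 A-6 against ATCC strains, including ORSA and VRE; MBCs determined for selected organisms. Serum effect assessed by repeating MIC tests with human serum present.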
# H. influenzae = assay: Broth microdilution MIC (NCCLS), H. influenzae; details: Haemophilus influenzae; some strains of H. influenzae
# Protocol: as §1
# [3] = system: efflux mutants of E. coli; assay: Broth microdilution MIC (NCCLS), E. coli efflux mutants; details: Escherichia coli, read-out: MICs
# Protocol: as §1
compound,measurement,setting,value
"COc1cc2nc(Nc3nc(O)c4cc(OCCN5CCCC5)ccc4n3)nc(C)c2cc1OC.O=C(O)C(F)(F)F [Example 148, 2-(6,7-Dimethoxy-4-methyl-quinazolin-2-ylamino)-6-(2-pyrrolidin-1-yl-ethoxy)-quinazolin-4-ol trifluoroacetate salt]",MIC,M. catarrhalis,2 to 64 µg/mL
same,MIC,[1],64 µg/mL
same,MIC,[2],0.06 to 16 µg/mL
same,MIC,H. influenzae,16 to 32 µg/mL
same,MIC,[3],16 to 64 µg/mL
"CCN(CCO)CCOc1ccc2nc(Nc3nc(C)c4cc(OC)c(OC)cc4n3)nc(O)c2c1.O=C(O)C(F)(F)F [Example 159, 2-(6,7-Dimethoxy-4-methyl-quinazolin-2-ylamino)-6-{2-[ethyl-(2-hydroxy-ethyl)-amino]-ethoxy}-quinazolin-4-ol trifluoroacetate salt]",MIC,M. catarrhalis,2 to 64 µg/mL
same,MIC,[1],64 µg/mL
same,MIC,[2],0.06 to 16 µg/mL
same,MIC,H. influenzae,16 to 32 µg/mL
same,MIC,[3],16 to 64 µg/mL
"COc1cc(OC)c2nc(Nc3nc(O)c4cccc(F)c4n3)nc(C)c2c1.O=C(O)C(F)(F)F [Example 98, 2-(6,8-Dimethoxy-4-methyl-quinazolin-2-ylamino)-8-fluoro-quinazolin-4-ol trifluoroacetate salt]",MIC,M. catarrhalis,2 to 64 µg/mL
same,MIC,[1],64 µg/mL
same,MIC,[2],0.06 to 16 µg/mL
same,MIC,H. influenzae,16 to 32 µg/mL
same,MIC,[3],16 to 64 µg/mL
"COc1cc2nc(Nc3nc(O)c4cc(OCCN5CCCCC5)ccc4n3)nc(C)c2cc1OC.O=C(O)C(F)(F)F [Example 145, 2-(6,7-Dimethoxy-4-methyl-quinazolin-2-ylamino)-6-(2-piperidin-1-yl-ethoxy)-quinazolin-4-ol trifluoroacetate salt]",MIC,M. catarrhalis,2 to 64 µg/mL
same,MIC,[1],64 µg/mL
same,MIC,[2],0.06 to 16 µg/mL
same,MIC,H. influenzae,16 to 32 µg/mL
same,MIC,[3],16 to 64 µg/mL
"COc1cc2nc(Nc3nc(O)c4cc(N(C)C)cc(C)c4n3)nc(C)c2cc1OC.O=C(O)C(F)(F)F [Example 121, 2-(6,7-Dimethoxy-4-methyl-quinazolin-2-ylamino)-6-dimethylamino-8-methyl-quinazolin-4-ol trifluoroacetate salt]",MIC,M. catarrhalis,2 to 64 µg/mL
same,MIC,[1],64 µg/mL
same,MIC,[2],0.06 to 16 µg/mL
same,MIC,H. influenzae,16 to 32 µg/mL
same,MIC,[3],16 to 64 µg/mL
"COc1cc(OC)c2nc(Nc3nc(O)c4cc(OCCN(C)CCO)ccc4n3)nc(C)c2c1.O=C(O)C(F)(F)F [Example 140, 2-(6,8-Dimethoxy-4-methyl-quinazolin-2-ylamino)-6-{2-[(2-hydroxy-ethyl)-methyl-amino]-ethoxy}-quinazolin-4-ol trifluoroacetate salt]",MIC,M. catarrhalis,2 to 64 µg/mL
same,MIC,[1],64 µg/mL
same,MIC,[2],0.06 to 16 µg/mL
same,MIC,H. influenzae,16 to 32 µg/mL
same,MIC,[3],16 to 64 µg/mL
"Cc1nc(Nc2nc(O)c3cccc(F)c3n2)nc2cc3c(cc12)OCCO3.O=C(O)C(F)(F)F [Example 108, 8-Fluoro-2-(4-methyl-7,8-dihydro-[1,4]dioxino[2,3-g]quinazolin-2-ylamino)-quinazolin-4-ol trifluoroacetate salt]",MIC,M. catarrhalis,2 to 64 µg/mL
same,MIC,[1],64 µg/mL
same,MIC,[2],0.06 to 16 µg/mL
same,MIC,H. influenzae,16 to 32 µg/mL
same,MIC,[3],16 to 64 µg/mL
"CCN(CCOc1ccc2nc(Nc3nc(C)c4cc(OC)c(OC)cc4n3)nc(O)c2c1)CCN(C)C.O=C(O)C(F)(F)F [Example 171, 2-(6,7-Dimethoxy-4-methyl-quinazolin-2-ylamino)-6-{2[(2-dimethylamino-ethyl)-ethyl-amino]-ethoxy}-quinazolin-4-ol trifluoroacetate salt]",MIC,M. catarrhalis,2 to 64 µg/mL
same,MIC,[1],64 µg/mL
same,MIC,[2],0.06 to 16 µg/mL
same,MIC,H. influenzae,16 to 32 µg/mL
same,MIC,[3],16 to 64 µg/mL
"COCCOc1cc2nc(Nc3nc(O)c4cccc(OC)c4n3)nc(C)c2cc1OCCOC.O=C(O)C(F)(F)F [Example 89, 2-[6,7-Bis-(2-methoxy-ethoxy)-4-methyl-quinazolin-2-ylamino]-8-methoxy-quinazolin-4-ol trifluoroacetate salt]",MIC,M. catarrhalis,2 to 64 µg/mL
same,MIC,[1],64 µg/mL
same,MIC,[2],0.06 to 16 µg/mL
same,MIC,H. influenzae,16 to 32 µg/mL
same,MIC,[3],16 to 64 µg/mL
